# Reference: patent US11401278B2, “Macrocyclic indole derivatives” (The Broad Institute, Inc., priority 2017, dated 2022)
# Where “and” joins values, the source holds several entries; their conditions need not be identical. Equal values may be shown once. Where a name gives a salt, the structure may show the parent alone. Read-outs that look alike come from different tables or passages of the source.
# Assays:
# [1] = test system: A2780; assay: Antiproliferation assay (Assay 7), A2780; type: cell-based; details: CellTiter-Glo, several values per example
# Protocol: Assessment of the Anti-Proliferative Effect of Compounds in Different Cell Lines
# The impact of compounds on the proliferation of different cell lines was assessed using the CellTiter-Glo® Luminescent Cell Viability reagent from Promega (G7573).
# In parallel, cells were plated in a reference (day 0) plate for time zero determination.
# Rim wells were excluded. The cells were incubated for 72 hours in a humidified incubator at 37° C. The day 0 plate was measured by adding 30 μL/well of CTG solution (CellTiter-Glo® Luminescent Cell Viability reagent, Promega G7573) to time zero wells in the reference plate followed by a 10 minutes incubation and luminescence reading at 0.1 ms. using the PHERAstar FS microplate reader (BMG Labtech).
# After 72 hours incubation, the treated plates were measured in the same way as the day 0 plate mentioned above.
# [2] = target: MCL1 protein (Homo sapiens (Human), UniProt Q07820); assay: PIxEL: protein-protein interaction in permeabilized cells by ELISA (Assay 5); type: cell-based; details: permeabilized RKO cells, Biotin-BIM peptide 0.2 μM, serum free; median
# Protocol: PI×EL: Protein-Protein Interaction in Permeabilized Cells by ELISA
# Most MCL1 protein molecules are localized at the mitochondria outer membrane and sequester pro-apoptotic proteins through binding of their BCL2 homology domain 3 (BH3 domain). MEB buffer (150 mM mannitol, 10 mM HEPES pH 7.5, 50 mM KCl, 20 μM EDTA, 20 μM EGTA, 5 mM potassium succinate, 0.1% protease-free BSA (SIGMA) with low dose digitonin (0.002%) permeabilizes plasma membrane while leaves live mitochondria, where MCL1 maintains its native localization and conformation. Unlike biophysical assays (e.g. TR-FRET) that use truncated recombinant MCL1 protein, this assay uses full length endogenous MCL1 protein at mitochondria outer membrane. It measures the interaction between MCL1 protein and biotinylated BIM BH3 peptide. Compounds can compete with BIM BH3 peptide to bind to MCL1 protein. This serum free assay measures the affinity between MCL1 protein and compound in permeabilized cells, therefore it is not affected by serum binding and cell permeability, and can measure the intrinsic compound affinity.
# On day 1, RKO colon cancer cell line cells were plated at 0.8 million cells/ml, 100 μl/well in 96-well flat bottom TC plates (Corning). MCL1 antibody (Santa Cruz sc-12756) were diluted at 200 fold (final concentration 1 μg/ml) in carbonate buffer (Thermo Fisher Scientific, pH 9.6), and 50 μl of diluted antibody was added to each well of high bind ELISA plates (SARSTEDT). Each plate was tapped to make sure liquid covering entire bottom of wells and incubate at 37° C. overnight.
# On the second day, MCL1 antibody was washed from ELISA plate. 250 μl Odyssey® Blocking Buffer (PBS) (Li-Cor) was added to each well, incubated at room temperature for at least 1 hour, then washed once with 250 μl 1×PBST. Plates with RKO cells were gently washed once with 100 μl/well PBS, once with 100 μl/well MEB buffer without digitonin, then 100 μl of MEB buffer with 0.002% digitonin was gently added to each well. Compounds were added with HP Tecan compound dispenser in 3-fold dilution series, highest dose 30 μM, 10-dose per compound in quadruplicates. Biotin-BIM peptide (synthesized by 21st Century) was added with HP Tecan compound dispenser at 0.2 μM immediately after the addition of compounds. Plates were rocked for 1 hour at room temperature. Then MEB buffer was aspirated and 50 μl of CHAPS buffer (50 mM Tris-Cl, pH 7.4, 150 mM NaCl, 1% CHAPS, 1 mM EDTA, 1 mM EGTA, cOmplete protease inhibitors (Roche), PhosSTOP (Roche)) was added to each well. Plates were rocked for 1 hour at 4° C., then 45 μl cell lysate from each well were transferred to ELISA plates coated with MCL1 antibody. Plates were incubated overnight in the cold room with rocking.
# On the third day, ELISA plates were washed once with 250 μl 1×PBST. Streptavidin-poly-HRP (Thermo Fisher Scientific) was diluted to 20 ng/ml in Odyssey blocking buffer plus 0.05% Triton-100, and 100 μl was added to each well of the ELISA plate. Plates were incubated at room temperature for 1 hour with rocking, then washed with 100 μL 1×PBST for 3 times. Each SuperSignal ELISA Femto Maximum Sensitivity substrate was added to a 50-ml tube and mixed, then 100 μl of mixed substrate was added to each well. Plates were shaken for 1 minute then luminescence was measured by Envision plate reader […]. Signal of each well were normalized by no-compound control and no-cell control. IC50 was calculated using Graphic Pad PRISM software.
# [3] = target: MCL-1 (Homo sapiens (Human), UniProt Q07820, K194A/K197A/R201A); assay: Protein-compound interaction assay (SPR assay, Assay 8); type: binding; details: immobilized MBP-MCL-1, 25° C., geometric mean
# Description: Assay 8 Protein-Compound Interaction Assay (SPR Assay)
# The ability of the compounds described in this invention to bind to MCL-1 may be determined using surface plasmon resonance (SPR). This allows for the quantification of binding in terms of the equilibrium dissociation constant (KD [M]), as well as association and dissociation rate constants (kon [1/M 1/s] and koff [1/s], respectively). The measurements may be performed using Biacore® T200 or Biacore® S200 instruments (GE Healthcare).
# For SPR measurements, recombinant MCL-1 (amino acids 173-321, N-terminal fused to Maltose Binding Protein (MBP) (SEQ ID 1) purchased from Beryllium (Bedford, Mass., USA)) was immobilized using standard amine coupling (Johnsson B et al, Anal Biochem. 1991 Nov. 1; 198(2):268-77). Briefly, carboxymethylated dextran biosensor chips (Series S Sensor Chip CMS, GE Healthcare) were activated with 1-ethyl-3-(3-dimethylaminopropyl)-carbodiimide hydrochloride (EDC) and N-hydroxysuccinimide (NHS) according to the supplier's instructions. MBP-MCL-1 was diluted in 1×PBS-P+ (GE Healthcare) and injected on the activated chip surface. Subsequently, a solution of 1 M ethanolamine-HCl (GE Healthcare) was injected to block unreacted groups, resulting in approximately 400-2500 response units (RU) of immobilized protein. A reference surface was generated by treatment with NHS-EDC and ethanolamine-HCl. Compounds were dissolved in 100% dimethylsulfoxide (DMSO) to a concentration of 10 mM and subsequently diluted in running buffer (1×PBS-P+ (GE Healthcare) [generated from PBS-P+ Buffer 10× (GE Healthcare): 0.2 M phosphate buffer with 27 mM KCl, 1.37 M NaCl and 0.5% Surfactant P20 (Tween 20).], 1% v/v DMSO). For SPR binding-measurements, serial dilutions of compound (eight dilution steps, typically ranging from 0.2 nM up to 1 μM) were injected over immobilized protein. […] Compounds were injected for 60 s followed by a dissociation time of up to 1000 s.
# The double-referenced sensorgrams were fit to a simple reversible Langmuir 1:1 reaction mechanism as implemented in the Biacore® T200 and S200 evaluation software (T200 evaluation software version 2.0 and S200 evaluation software version 1.0, GE Healthcare).
# [4] = Homo sapiens, A2780, 72 h, read-out: Antiproli A2780 [M] IC50
# Sequence of MCL-1 (Q07820 whole entry K194A/K197A/R201A, looked up): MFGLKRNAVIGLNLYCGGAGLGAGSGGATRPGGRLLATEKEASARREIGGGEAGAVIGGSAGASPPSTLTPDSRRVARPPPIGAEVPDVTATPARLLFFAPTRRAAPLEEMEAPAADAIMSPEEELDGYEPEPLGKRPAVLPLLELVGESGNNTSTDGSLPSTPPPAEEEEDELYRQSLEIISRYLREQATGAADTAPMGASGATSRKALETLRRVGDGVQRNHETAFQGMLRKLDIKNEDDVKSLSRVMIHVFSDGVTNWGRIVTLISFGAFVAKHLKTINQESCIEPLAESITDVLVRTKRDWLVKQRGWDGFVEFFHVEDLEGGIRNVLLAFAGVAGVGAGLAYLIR
# Sequence of MCL1 protein (Q07820 whole entry): as the sequence (Q07820 whole entry K194A/K197A/R201A, looked up) above, with A194K, A197K, A201R counted along it
smiles,measurement,setting,value
"Cc1c2c(nn1C)CN(CCN1CCOCC1)S(=O)(=O)CCCn1c(C(=O)O)c(CCCOc3cccc4ccccc34)c3cccc-2c31 (racemic) [Example 1, (rac)-2,3-Dimethyl-14-[2-(morpholin-4-yl)ethyl]-7-{3-[(naphthalen-1-yl)oxy]propyl}-13,13-dioxo-10,11,12,13,14,15-hexahydro-2H-13λ^6-pyrazolo[3′,4′:4,5][1,2,8]thiadiazacycloundecino-[6,7,8-hi]indole-8-carboxylic acid]",IC50,"[1]; 72 hours, listed as 01, read-out: Antiproli A2780 [M] IC50",> 3.3e-05 M
same,IC50,[1]; [4],3.21e-05 M
"Cc1c2c(nn1C)CN(CCN1CCOCC1)S(=O)(=O)CCCn1c(C(=O)O)c(CCCOc3cccc4ccccc34)c3cccc-2c31 (single isomer, unassigned; enantiomer 2) [Example 3, 2,3-Dimethyl-14-[2-(morpholin-4-yl)ethyl]-7-{3-[(naphthalen-1-yl)oxy]propyl}-13,13-dioxo-10,11,12,13,14,15-hexahydro-2H-13λ^6-pyrazolo[3′,4′:4,5][1,2,8]thiadiazacycloundecino-[6,7,8-hi]indole-8-carboxylic acid-N-ethylethanamine salt (Enantiomer 2)]",IC50,"[1]; 72 hours, listed as 03, read-out: Antiproli A2780 [M] IC50",2.11e-05 M
"Cc1c2c(nn1C)CN(C)S(=O)(=O)CCCn1c(C(=O)O)c(CCCOc3cccc4ccccc34)c3ccc(Cl)c-2c31 (racemic) [Example 4, (rac)-4-Chloro-2,3,14-trimethyl-7-{3-[(naphthalen-1-yl)oxy]propyl}-13,13-dioxo-10,11,12,13,14,15-hexahydro-2H-13λ^6-pyrazolo[3′,4′:4,5][1,2,8]thiadiazacycloundecino-[6,7,8-hi]indole-8-carboxylic acid]",IC50,"[1]; 72 hours, listed as 04, read-out: Antiproli A2780 [M] IC50",1.66e-05 M
same,IC50,[1]; [4],1.22e-05 M
"Cc1c2c(nn1C)CN(C)S(=O)(=O)CCCn1c(C(=O)O)c(CCCOc3cccc4ccccc34)c3ccc(Cl)c-2c31 (single isomer, unassigned; enantiomer 1) [Example 5, 4-Chloro-2,3,14-trimethyl-7-{3-[(naphthalen-1-yl)oxy]propyl}-13,13-dioxo-10,11,12,13,14,15-hexahydro-2H-13λ^6-pyrazolo[3′,4′:4,5][1,2,8]thiadiazacycloundecino[6,7,8-hi]indole-8-carboxylic acid-N-ethylethanamine salt (Enantiomer 1)]",IC50,"[1]; 72 hours, listed as 05, read-out: Antiproli A2780 [M] IC50",9.33e-06 M and 1.13e-05 M
same,IC50,[2],0.57 µM
same,Kd,[3],0.0024 µM
same,koff,[3]; read-out: koff,0.0079 s⁻¹
same,kon,[3]; read-out: kon,3.2e+06 M⁻¹ s⁻¹
